Test results from ChEMBL document CHEMBL3885861, “Open TG-GATES”.

Species on record: Rattus norvegicus
Test: Open TG-GATES - Regimen: Single
Format: toxicity, organism-based, Sprague-Dawley
Design: regimen Single, gender Male, age 6 weeks
Conditions: in vivo, po, 0 mg/kg, route gavage, dose level Control; for APTT / Bas / Eos / Fbg / Hb / Ht / Lym / MCH / MCHC / MCV / Mono / Neu / PT / Plat / RBC / Ret / WBC: tissue Blood; for KIDNEY_L / KIDNEY_R / KIDNEY_TOTAL: tissue Kidney; for LIVER: tissue Liver; for A/G / ALP / ALT / AST / BUN / CRE / Ca / Cl / DBIL / GLC / IP / K / LDH / Na / PL / RALB / TBIL / TC / TG / TP / gamma-GTP: tissue Plasma

For `CN1C(=O)CCS(=O)(=O)C1c1ccc(Cl)cc1` (configuration not stated) [CHLORMEZANONE], the TERMINAL_BW (3 h) was 226.1 g, the APTT (3 h) was 17 s and the Bas (3 h) was 0%. It also gave an Eos (3 h) of 0.8%, a Fbg (3 h) of 315.6 mg/dL and a Hb (3 h) of 13.7 g/dL. The Ht (3 h) was 40.3%, the Lym (3 h) was 80.4% and the MCH (3 h) was 21.7 pg. For the same compound, the MCHC (3 h) was 33.9%, the MCV (3 h) was 64.1 fL and the Mono (3 h) was 3%. It also gave a Neu (3 h) of 15%, a PT (3 h) of 13.1 s and a Plat (3 h) of 122.7 x10_4/uL. The RBC (3 h) was 629.8 x10_4/ul, the Ret (3 h) was 7.8% and the WBC (3 h) was 78.6 x10_2/uL. It also gave a KIDNEY_L (3 h) of 1 g, a KIDNEY_R (3 h) of 1 g and a KIDNEY_TOTAL (3 h) of 2 g. The LIVER (3 h) was 10.3 g, the A/G (3 h) was 0.9 and the ALP (3 h) was 1820.8 IU/L. The ALT (3 h) was 43.6 IU/L, the AST (3 h) was 67.4 IU/L and the BUN (3 h) was 10.2 mg/dL. It also gave a CRE (3 h) of 0.1 mg/dL, a Ca (3 h) of 11.5 mg/dL and a Cl (3 h) of 106.2 meq/L. It also gave a DBIL (3 h) of 0.036 mg/dL, a GLC (3 h) of 182.2 mg/dL and an IP (3 h) of 9.5 mg/dL. For the same compound, the K (3 h) was 4.2 meq/L, the LDH (3 h) was 58.2 IU/L and the Na (3 h) was 140.2 meq/L. For the same compound, the PL (3 h) was 145.2 mg/dL, the RALB (3 h) was 2.7 g/dL and the TBIL (3 h) was 0.044 mg/dL. For the same compound, the TC (3 h) was 73.8 mg/dL, the TG (3 h) was 108.2 mg/dL and the TP (3 h) was 5.7 g/dL. The gamma-GTP (3 h) was 1 IU/L, the TERMINAL_BW (6 h) was 224.1 g and the APTT (6 h) was 15.7 s. The Bas (6 h) was 0%, the Eos (6 h) was 1% and the Fbg (6 h) was 310.2 mg/dL. For the same compound, the Hb (6 h) was 13.7 g/dL, the Ht (6 h) was 40.5% and the Lym (6 h) was 75%. It also gave an MCH (6 h) of 21.9 pg, an MCHC (6 h) of 33.8% and an MCV (6 h) of 65 fL. The Mono (6 h) was 3.4%, the Neu (6 h) was 19.8% and the PT (6 h) was 13.2 s. It also gave a Plat (6 h) of 113.5 x10_4/uL, an RBC (6 h) of 622.8 x10_4/ul and a Ret (6 h) of 7.8%. The WBC (6 h) was 97 x10_2/uL, the KIDNEY_L (6 h) was 0.9 g and the KIDNEY_R (6 h) was 0.9 g. The KIDNEY_TOTAL (6 h) was 1.8 g, the LIVER (6 h) was 9.3 g and the A/G (6 h) was 0.9. The ALP (6 h) was 1407 IU/L, the ALT (6 h) was 40.8 IU/L and the AST (6 h) was 78 IU/L. It also gave a BUN (6 h) of 10.4 mg/dL, a CRE (6 h) of 0.2 mg/dL and a Ca (6 h) of 11.6 mg/dL. The Cl (6 h) was 107 meq/L, the DBIL (6 h) was 0.02 mg/dL and the GLC (6 h) was 180.2 mg/dL. The IP (6 h) was 9.8 mg/dL, the K (6 h) was 4.3 meq/L and the LDH (6 h) was 57.8 IU/L. It also gave a Na (6 h) of 141.8 meq/L, a PL (6 h) of 145.6 mg/dL and an RALB (6 h) of 2.7 g/dL. The TBIL (6 h) was 0.04 mg/dL, the TC (6 h) was 85.2 mg/dL and the TG (6 h) was 54.4 mg/dL. For the same compound, the TP (6 h) was 5.7 g/dL, the gamma-GTP (6 h) was 1.4 IU/L and the TERMINAL_BW (9 h) was 227.6 g. For the same compound, the APTT (9 h) was 15.1 s, the Bas (9 h) was 0% and the Eos (9 h) was 1%. The Fbg (9 h) was 331.4 mg/dL, the Hb (9 h) was 13.4 g/dL and the Ht (9 h) was 39.9%. The Lym (9 h) was 74.4%, the MCH (9 h) was 21.2 pg and the MCHC (9 h) was 33.5%. For the same compound, the MCV (9 h) was 63.1 fL, the Mono (9 h) was 3.4% and the Neu (9 h) was 20.6%. For the same compound, the PT (9 h) was 13.2 s, the Plat (9 h) was 116.8 x10_4/uL and the RBC (9 h) was 631.4 x10_4/ul. The Ret (9 h) was 7.5%, the WBC (9 h) was 79.8 x10_2/uL and the KIDNEY_L (9 h) was 0.9 g. The KIDNEY_R (9 h) was 0.9 g, the KIDNEY_TOTAL (9 h) was 1.8 g and the LIVER (9 h) was 8.6 g. For the same compound, the A/G (9 h) was 0.9, the ALP (9 h) was 1793 IU/L and the ALT (9 h) was 38.6 IU/L. The AST (9 h) was 67.8 IU/L, the BUN (9 h) was 10.8 mg/dL and the CRE (9 h) was 0.2 mg/dL. For the same compound, the Ca (9 h) was 11.1 mg/dL, the Cl (9 h) was 105 meq/L and the DBIL (9 h) was 0.022 mg/dL. It also gave a GLC (9 h) of 192.6 mg/dL, an IP (9 h) of 11.3 mg/dL and a K (9 h) of 3.8 meq/L. The LDH (9 h) was 51.4 IU/L, the Na (9 h) was 143 meq/L and the PL (9 h) was 132 mg/dL. For the same compound, the RALB (9 h) was 2.6 g/dL, the TBIL (9 h) was 0.044 mg/dL and the TC (9 h) was 74.8 mg/dL. The TG (9 h) was 52.6 mg/dL, the TP (9 h) was 5.5 g/dL and the gamma-GTP (9 h) was 1 IU/L. The TERMINAL_BW (24 h) was 235.8 g, the APTT (24 h) was 17.4 s and the Bas (24 h) was 0.2%. For the same compound, the Eos (24 h) was 0.8%, the Fbg (24 h) was 283.8 mg/dL and the Hb (24 h) was 13.4 g/dL. It also gave a Ht (24 h) of 39.1%, a Lym (24 h) of 78.8% and an MCH (24 h) of 21.6 pg. For the same compound, the MCHC (24 h) was 34.4%, the MCV (24 h) was 62.9 fL and the Mono (24 h) was 2.8%. For the same compound, the Neu (24 h) was 17%, the PT (24 h) was 13 s and the Plat (24 h) was 115.7 x10_4/uL. The RBC (24 h) was 621 x10_4/ul, the Ret (24 h) was 7.2% and the WBC (24 h) was 77.6 x10_2/uL. It also gave a KIDNEY_L (24 h) of 1 g, a KIDNEY_R (24 h) of 1 g and a KIDNEY_TOTAL (24 h) of 2 g. For the same compound, the LIVER (24 h) was 10.6 g, the A/G (24 h) was 0.9 and the ALP (24 h) was 1848.2 IU/L. The ALT (24 h) was 51.8 IU/L, the AST (24 h) was 87 IU/L and the BUN (24 h) was 16.4 mg/dL. For the same compound, the CRE (24 h) was 0.2 mg/dL, the Ca (24 h) was 11.5 mg/dL and the Cl (24 h) was 105.2 meq/L. The DBIL (24 h) was 0.022 mg/dL, the GLC (24 h) was 193.4 mg/dL and the IP (24 h) was 8.1 mg/dL. It also gave a K (24 h) of 4.3 meq/L, an LDH (24 h) of 69.4 IU/L and a Na (24 h) of 142 meq/L. The PL (24 h) was 141.6 mg/dL, the RALB (24 h) was 2.7 g/dL and the TBIL (24 h) was 0.028 mg/dL. For the same compound, the TC (24 h) was 77.4 mg/dL, the TG (24 h) was 91.8 mg/dL and the TP (24 h) was 5.7 g/dL. It also gave a gamma-GTP (24 h) of 1 IU/L.
